Patent US8691865B2 (AbbVie Inc., priority 2008, dated 2014)

target: human Cav2.2 (Homo sapiens, UniProt Q00975); test: Assessment of calcium channel activity using FLIPR (Ca2+ influx in IMR32 cells); format: cell-based; conditions: not given
Procedure: (i) In Vitro Methods—Assessment of Calcium Channel Activity Using FLIPR:
The IMR32 cells were maintained in MEM media containing 10% (v/v) FBS, 1% (v/v) antibiotic/antimitotic, 1% (v/v) sodium pyruvate and 1% (v/v) MEM NEAA. Following dissociation in 0.05% (v/v) trypsin/EDTA, cells were seeded into black 1×96-well plates (Corning Cellbind) at a density of 1−1.2×10^5 cells/well and incubated in the maintenance media above for 48 hours at 37° C. […] To determine the IC50 values, the percent inhibition of the compound at each concentration was determined relative to the activity in the absence of inhibitor, and data was fitted using non-linear regression sigmoidal dose response curve analysis with GraphPad Prism®.

human Cav2.2, sequence (Q00975 whole entry): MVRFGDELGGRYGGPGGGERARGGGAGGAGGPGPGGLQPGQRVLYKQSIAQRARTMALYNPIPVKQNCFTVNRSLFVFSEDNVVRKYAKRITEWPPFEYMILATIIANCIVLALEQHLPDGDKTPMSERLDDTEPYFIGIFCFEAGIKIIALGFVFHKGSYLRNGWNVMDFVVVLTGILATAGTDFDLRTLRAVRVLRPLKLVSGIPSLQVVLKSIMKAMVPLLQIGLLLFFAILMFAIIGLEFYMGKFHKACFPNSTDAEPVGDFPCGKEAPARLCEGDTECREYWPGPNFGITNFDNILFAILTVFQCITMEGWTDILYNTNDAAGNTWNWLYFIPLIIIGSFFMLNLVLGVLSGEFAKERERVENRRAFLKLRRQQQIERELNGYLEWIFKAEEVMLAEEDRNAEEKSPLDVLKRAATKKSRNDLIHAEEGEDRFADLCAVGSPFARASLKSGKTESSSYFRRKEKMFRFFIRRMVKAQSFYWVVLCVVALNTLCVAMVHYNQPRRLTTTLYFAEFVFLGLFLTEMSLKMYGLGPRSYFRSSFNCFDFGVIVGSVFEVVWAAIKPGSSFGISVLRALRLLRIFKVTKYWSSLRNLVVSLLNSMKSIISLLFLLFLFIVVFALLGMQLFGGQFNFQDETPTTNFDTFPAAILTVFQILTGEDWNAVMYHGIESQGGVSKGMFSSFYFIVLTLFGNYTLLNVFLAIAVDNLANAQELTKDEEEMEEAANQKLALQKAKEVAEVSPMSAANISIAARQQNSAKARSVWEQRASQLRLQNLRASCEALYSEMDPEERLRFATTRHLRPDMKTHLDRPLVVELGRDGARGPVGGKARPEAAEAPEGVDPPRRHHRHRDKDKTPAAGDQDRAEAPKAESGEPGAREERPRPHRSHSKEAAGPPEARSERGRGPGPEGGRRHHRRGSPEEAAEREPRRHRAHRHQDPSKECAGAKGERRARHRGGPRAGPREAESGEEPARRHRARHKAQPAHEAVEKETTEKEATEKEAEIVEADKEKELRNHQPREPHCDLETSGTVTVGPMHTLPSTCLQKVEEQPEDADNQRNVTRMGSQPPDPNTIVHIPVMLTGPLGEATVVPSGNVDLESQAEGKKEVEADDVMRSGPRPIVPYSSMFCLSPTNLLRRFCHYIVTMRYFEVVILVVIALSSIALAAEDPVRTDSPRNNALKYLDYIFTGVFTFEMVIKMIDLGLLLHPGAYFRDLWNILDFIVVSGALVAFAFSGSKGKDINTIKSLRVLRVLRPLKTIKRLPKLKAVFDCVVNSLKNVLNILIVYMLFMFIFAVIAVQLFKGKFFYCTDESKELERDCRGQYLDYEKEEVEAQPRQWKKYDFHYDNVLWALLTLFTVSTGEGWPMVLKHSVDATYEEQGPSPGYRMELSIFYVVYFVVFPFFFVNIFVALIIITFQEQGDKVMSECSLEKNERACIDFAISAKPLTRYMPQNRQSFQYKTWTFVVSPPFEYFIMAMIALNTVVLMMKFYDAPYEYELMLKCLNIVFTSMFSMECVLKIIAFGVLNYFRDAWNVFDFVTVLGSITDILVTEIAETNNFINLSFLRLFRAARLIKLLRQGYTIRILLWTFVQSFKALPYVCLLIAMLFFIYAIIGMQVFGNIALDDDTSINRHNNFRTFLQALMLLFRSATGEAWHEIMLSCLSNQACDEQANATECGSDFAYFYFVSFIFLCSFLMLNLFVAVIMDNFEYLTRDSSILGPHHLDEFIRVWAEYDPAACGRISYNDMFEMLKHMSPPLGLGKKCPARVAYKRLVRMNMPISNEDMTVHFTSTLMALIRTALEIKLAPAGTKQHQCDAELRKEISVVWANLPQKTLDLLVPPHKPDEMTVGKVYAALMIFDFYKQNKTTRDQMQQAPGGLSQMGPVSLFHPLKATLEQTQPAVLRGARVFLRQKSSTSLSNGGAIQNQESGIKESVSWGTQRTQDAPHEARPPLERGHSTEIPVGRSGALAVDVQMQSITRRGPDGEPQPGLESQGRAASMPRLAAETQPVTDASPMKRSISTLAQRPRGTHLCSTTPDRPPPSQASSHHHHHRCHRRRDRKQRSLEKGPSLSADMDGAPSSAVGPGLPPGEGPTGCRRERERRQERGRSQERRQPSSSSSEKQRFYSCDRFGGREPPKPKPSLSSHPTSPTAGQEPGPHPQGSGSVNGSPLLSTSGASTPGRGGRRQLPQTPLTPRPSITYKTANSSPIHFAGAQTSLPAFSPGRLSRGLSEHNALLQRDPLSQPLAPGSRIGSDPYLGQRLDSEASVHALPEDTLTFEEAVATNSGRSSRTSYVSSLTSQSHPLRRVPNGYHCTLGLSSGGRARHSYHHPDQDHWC
human Cav2.2, sequence (P54289 25-956 partner limits assumed): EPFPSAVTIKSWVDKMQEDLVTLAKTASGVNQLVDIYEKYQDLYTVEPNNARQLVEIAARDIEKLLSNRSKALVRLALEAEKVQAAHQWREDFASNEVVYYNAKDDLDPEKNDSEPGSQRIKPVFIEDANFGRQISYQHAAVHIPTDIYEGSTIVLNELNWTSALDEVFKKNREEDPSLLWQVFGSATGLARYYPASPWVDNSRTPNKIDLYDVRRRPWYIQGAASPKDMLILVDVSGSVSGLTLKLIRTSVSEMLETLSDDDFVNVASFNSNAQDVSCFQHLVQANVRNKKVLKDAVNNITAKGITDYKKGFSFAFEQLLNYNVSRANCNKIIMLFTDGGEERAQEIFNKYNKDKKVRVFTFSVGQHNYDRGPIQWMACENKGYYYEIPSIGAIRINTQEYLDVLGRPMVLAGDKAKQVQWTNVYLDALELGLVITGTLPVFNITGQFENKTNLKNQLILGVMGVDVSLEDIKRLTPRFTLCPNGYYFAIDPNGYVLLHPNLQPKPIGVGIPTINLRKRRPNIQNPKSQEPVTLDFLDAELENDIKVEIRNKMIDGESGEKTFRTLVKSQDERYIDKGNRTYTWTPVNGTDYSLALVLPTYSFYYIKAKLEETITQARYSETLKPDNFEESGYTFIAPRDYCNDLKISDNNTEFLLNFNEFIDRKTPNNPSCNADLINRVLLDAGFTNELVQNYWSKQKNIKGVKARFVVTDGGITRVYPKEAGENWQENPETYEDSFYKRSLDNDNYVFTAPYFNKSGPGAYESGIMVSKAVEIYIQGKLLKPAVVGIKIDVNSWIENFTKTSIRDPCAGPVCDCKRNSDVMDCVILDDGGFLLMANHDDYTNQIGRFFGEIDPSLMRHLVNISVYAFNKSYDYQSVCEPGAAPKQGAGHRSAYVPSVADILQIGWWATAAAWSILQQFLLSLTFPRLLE
human Cav2.2, sequence (P54289 957-1103 partner limits assumed): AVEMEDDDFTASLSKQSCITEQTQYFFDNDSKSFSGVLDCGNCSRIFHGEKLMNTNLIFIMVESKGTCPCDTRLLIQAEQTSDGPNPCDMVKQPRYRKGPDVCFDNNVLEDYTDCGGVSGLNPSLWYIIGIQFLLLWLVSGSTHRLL
human Cav2.2, sequence (P54284 whole entry partner): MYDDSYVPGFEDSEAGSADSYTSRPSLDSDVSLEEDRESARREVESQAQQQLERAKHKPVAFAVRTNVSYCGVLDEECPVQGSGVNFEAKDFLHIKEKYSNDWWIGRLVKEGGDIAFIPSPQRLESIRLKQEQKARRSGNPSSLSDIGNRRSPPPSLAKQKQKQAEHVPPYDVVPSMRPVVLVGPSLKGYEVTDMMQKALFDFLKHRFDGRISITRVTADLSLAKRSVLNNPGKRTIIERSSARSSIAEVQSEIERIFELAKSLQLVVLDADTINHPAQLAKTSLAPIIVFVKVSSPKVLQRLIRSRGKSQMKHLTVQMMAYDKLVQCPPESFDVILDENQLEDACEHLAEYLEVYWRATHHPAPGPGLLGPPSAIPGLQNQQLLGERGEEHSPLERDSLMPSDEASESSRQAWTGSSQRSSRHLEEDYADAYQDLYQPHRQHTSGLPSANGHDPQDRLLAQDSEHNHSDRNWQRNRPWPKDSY

IC50 [µM]	Compound
1	Fc1ccc(-c2nc(CN[C@H]3CC[C@@H]4CN(c5cccc(C(F)(F)F)n5)C[C@@H]43)co2)cc1 [Example 743, (3aR,4S,6aS)-N-{[2-(4-fluorophenyl)-1,3-oxazol-4-yl]methyl}-2-[6-(trifluoromethyl)pyridin-2-yl]octahydrocyclopenta[c]pyrrol-4-amine]
2.63	Cc1cnc(C(=O)N[C@H]2CC[C@@H]3CN(c4cccc(C(F)(F)F)n4)C[C@@H]32)cn1 [Example 579, 5-methyl-N-{(3aR,4S,6aS)-2-[6-(trifluoromethyl)pyridin-2-yl]octahydrocyclopenta[c]pyrrol-4-yl}pyrazine-2-carboxamide]
1.31	CN[C@@H](CC(C)(C)C)C(=O)N[C@H]1CC[C@@H]2CN(S(=O)(=O)c3ccc(C(F)(F)F)cc3)C[C@@H]21 [Example 415, N^2,4-dimethyl-N^1-((3aR,4S,6aS)-2-{[4-(trifluoromethyl)phenyl]sulfonyl}octahydrocyclopenta[c]pyrrol-4-yl)-L-leucinamide]
1.16	FC(F)(F)c1cccc(N2C[C@H]3CC[C@H](NCc4coc(-c5ccc(Cl)cc5)n4)[C@H]3C2)n1 [Example 741, (3aR,4S,6aS)-N-{[2-(4-chlorophenyl)-1,3-oxazol-4-yl]methyl}-2-[6-(trifluoromethyl)pyridin-2-yl]octahydrocyclopenta[c]pyrrol-4-amine]
2.02	CC(C)[C@@H](C(=O)N[C@@H]1CC[C@H]2CN(Cc3cccc(C(F)(F)F)c3)C[C@H]21)N(C)C(=O)OC(C)(C)C [Example 316, tert-butyl methyl((S)-3-methyl-1-oxo-1-((3aS,4R,6aR)-2-(3-(trifluoromethyl)benzyl)octahydrocyclopenta[c]pyrrol-4-ylamino)butan-2-yl)carbamate]
4.2	Cc1nc(CN[C@H]2CC[C@@H]3CN(c4cccc(C(F)(F)F)n4)C[C@@H]32)c[nH]1 [Example 676, (3aR,4S,6aS)-N-[(2-methyl-1H-imidazol-4-yl)methyl]-2-[6-(trifluoromethyl)pyridin-2-yl]octahydrocyclopenta[c]pyrrol-4-amine]
0.74	O=C(N[C@H]1CC[C@H]2CN(Cc3ccc(F)cc3)C[C@H]21)C(C1CCCCC1)C1CCCCC1 [Example 56, 2,2-dicyclohexyl-N-[(3aS,4S,6aR)-2-(4-fluorobenzyl)octahydrocyclopenta[c]pyrrol-4-yl]acetamide]
21.2	Cc1ccc(N2C[C@H]3CC[C@H](NC(=O)[C@@H]4C[C@@H](F)CN4)[C@H]3C2)cc1 [Example 652, (4R)-4-fluoro-N-[(3aR,4S,6aS)-2-(4-methylphenyl)octahydrocyclopenta[c]pyrrol-4-yl]-L-prolinamide]
1.69	Cc1c(CN[C@H]2CC[C@@H]3CN(c4cccc(C(F)(F)F)n4)C[C@@H]32)[nH]c2ccccc12 [Example 664, (3aR,4S,6aS)-N-[(3-methyl-1H-indol-2-yl)methyl]-2-[6-(trifluoromethyl)pyridin-2-yl]octahydrocyclopenta[c]pyrrol-4-amine]
1.66	CN[C@@H](Cc1ccccc1)C(=O)N[C@H]1CC[C@@H]2CN(S(=O)(=O)c3ccc(C(F)(F)F)cc3Cl)C[C@@H]21 [Example 432]
2.57	O=C(N[C@H]1CC[C@@H]2CN(c3cccc(C(F)(F)F)c3)C[C@@H]21)[C@@H]1C[C@@H](F)CN1 [Example 617, (4R)-4-fluoro-N-{(3aR,4S,6aS)-2-[3-(trifluoromethyl)phenyl]octahydrocyclopenta[c]pyrrol-4-yl}-L-prolinamide]
> 9	CCC[C@H](NC)C(=O)N[C@@H]1CC[C@H]2CN(Cc3ccc(F)cc3)C[C@H]21 [Example 372, N^1-[(3aS,4R,6aR)-2-(4-fluorobenzyl)octahydrocyclopenta[c]pyrrol-4-yl]-N^2-methyl-L-norvalinamide]
2.36	CN[C@H](CC(C)C)C(=O)N[C@@H]1CC[C@H]2CN(c3ccc(C(F)(F)F)cc3)C[C@H]21 [Example 768, N^2-methyl-N-{(3aS,4R,6aR)-2-[4-(trifluoromethyl)phenyl]octahydrocyclopenta[c]pyrrol-4-yl}-D-leucinamide]
1.65	Fc1ccc(-c2n[nH]cc2CN[C@H]2CC[C@@H]3CN(c4cccc(C(F)(F)F)n4)C[C@@H]32)cc1 [Example 672, (3aR,4S,6aS)-N-{[3-(4-fluorophenyl)-1H-pyrazol-4-yl]methyl}-2-[6-(trifluoromethyl)pyridin-2-yl]octahydrocyclopenta[c]pyrrol-4-amine]
2.78	O=C(N[C@H]1CC[C@@H]2CN(c3ccc(C(F)(F)F)cn3)C[C@@H]21)[C@@H]1Cc2ccccc2N1 [Example 604, (2S)-N-{(3aR,4S,6aS)-2-[5-(trifluoromethyl)pyridin-2-yl]octahydrocyclopenta[c]pyrrol-4-yl}indoline-2-carboxamide]
0.46	CC(C)(C)C[C@H](NCC1CC1)C(=O)N[C@H]1CC[C@@H]2CN(c3ccc(C(F)(F)F)cn3)C[C@@H]21 [Example 478, N^2-(cyclopropylmethyl)-4-methyl-N^1-{(3aR,4S,6aS)-2-[5-(trifluoromethyl)pyridin-2-yl]octahydrocyclopenta[c]pyrrol-4-yl}-L-leucinamide]
1.53	Cc1cccc2c(CN[C@H]3CC[C@@H]4CN(c5cccc(C(F)(F)F)n5)C[C@@H]43)c[nH]c12 [Example 671, (3aR,4S,6aS)-N-[(7-methyl-1H-indol-3-yl)methyl]-2-[6-(trifluoromethyl)pyridin-2-yl]octahydrocyclopenta[c]pyrrol-4-amine]
1.62	FC(F)(F)c1cccc(N2C[C@H]3CC[C@H](NCc4[nH]c5ccccc5c4Cl)[C@H]3C2)n1 [Example 679, (3aR,4S,6aS)-N-[(3-chloro-1H-indol-2-yl)methyl]-2-[6-(trifluoromethyl)pyridin-2-yl]octahydrocyclopenta[c]pyrrol-4-amine]
0.99	O=C(N[C@H]1CC[C@H]2CN(Cc3cccc(F)c3)C[C@H]21)C(C1CCCCC1)C1CCCCC1 [Example 64, 2,2-dicyclohexyl-N-[(3aS,4S,6aR)-2-(3-fluorobenzyl)octahydrocyclopenta[c]pyrrol-4-yl]acetamide]
1.11	CCC[C@H](NCC(C)(C)C)C(=O)N[C@@H]1CC[C@H]2CN(S(=O)(=O)c3ccc(C(F)(F)F)cc3)C[C@H]21 [Example 260, N^2-neopentyl-N^1-((3aS,4R,6aR)-2-{[4-(trifluoromethyl)phenyl]sulfonyl}octahydrocyclopenta[c]pyrrol-4-yl)-L-norvalinamide]

same assay, conditions: read-out: IC50 (μM) or percent inhibition (* indicates 3 minute incubation, otherwise 60 minute); IC50; 60 minute pre-incubation with compound; IMR32 cells, 80 mM KCl depolarization

IC50 [µM]	Compound
0.26	CC(C)(C)C[C@H](NCC1CC1)C(=O)N[C@H]1CC[C@@H]2CN(c3cccc(C(F)(F)F)n3)C[C@@H]21 [Example 479, N^2-(cyclopropylmethyl)-4-methyl-N^1-{(3aR,4S,6aS)-2-[6-(trifluoromethyl)pyridin-2-yl]octahydrocyclopenta[c]pyrrol-4-yl}-L-leucinamide]
1.04	CC(C)C[C@H](NS(=O)(=O)C1CC1)C(=O)N[C@H]1CC[C@H]2CN(Cc3cccc(C(F)(F)F)c3)C[C@H]21 [Example 174, N^2-(cyclopropylsulfonyl)-N^1-{(3aS,4S,6aR)-2-[3-(trifluoromethyl)benzyl]octahydrocyclopenta[c]pyrrol-4-yl}-L-leucinamide]
0.94	CC(C)C[C@H](NC(=O)NC1CCCC1)C(=O)N[C@@H]1CC[C@H]2CN(Cc3cccc(C(F)(F)F)c3)C[C@H]21 [Example 181, N^2-[(cyclopentylamino)carbonyl]-N^1-{(3aS,4R,6aR)-2-[3-(trifluoromethyl)benzyl]octahydrocyclopenta[c]pyrrol-4-yl}-L-leucinamide]
12.4	O=C(N[C@@H]1CC[C@H]2CN(Cc3ccc(F)cc3)C[C@H]21)[C@@H]1CCCCN1 [Example 368, (2S)-N-[(3aS,4R,6aR)-2-(4-fluorobenzyl)octahydrocyclopenta[c]pyrrol-4-yl]piperidine-2-carboxamide]
1.04	CC(C)C(C(=O)N[C@H]1CC[C@@H]2CN(Cc3ccc(C(C)(C)C)cc3)C[C@@H]21)c1ccccc1 (stereo partly drawn) [Example 95, N-[(3aR,4S,6aS)-2-(4-tert-butylbenzyl)octahydrocyclopenta[c]pyrrol-4-yl]-3-methyl-2-phenylbutanamide]
1.49	CC(C)C(C(=O)N[C@H]1CC[C@@H]2CN(Cc3ccccc3)C[C@@H]21)c1ccc(Cl)cc1 (stereo partly drawn) [Example 43, N-[(3aR,4S,6aS)-2-benzyloctahydrocyclopenta[c]pyrrol-4-yl]-2-(4-chlorophenyl)-3-methylbutanamide]
17.6	CC(C)C[C@@H](C(=O)N[C@@H]1CC[C@H]2CNC[C@H]21)N(C)C(=O)OC(C)(C)C [Example 349, tert-butyl methyl((S)-4-methyl-1-((3aS,4R,6aR)-octahydrocyclopenta[c]pyrrol-4-ylamino)-1-oxopentan-2-yl)carbamate]
22.1	O=S(=O)(N[C@H]1CC[C@H]2CN(CCCCO)C[C@H]21)c1cccc(C(F)(F)F)c1 [Example 195, N-[(3aS,4S,6aR)-2-(4-hydroxybutyl)octahydrocyclopenta[c]pyrrol-4-yl]-3-(trifluoromethyl)benzenesulfonamide]
3.44	O=C(N[C@H]1CC[C@H]2CN(C(c3ccccc3)c3ccccc3)C[C@H]21)C(C1CCCCC1)C1CCCCC1 [Example 120, N-[(3aS,4S,6aR)-2-benzhydryloctahydrocyclopenta[c]pyrrol-4-yl]-2,2-dicyclohexylacetamide]

Compound	IC50 [µM]
N-(tert-butoxycarbonyl)-N-((3aR,4S,6aS)-2-{[3-(trifluoromethyl)phenyl]sulfonyl}octahydrocyclopenta[c]pyrrol-4-yl)-L-phenylalaninamide [Example 269]	1.9
